Measured values published in patent US20240174690A1, “ANNULATED 2-AMINO-3-CYANO THIOPHENES AND DERIVATIVES FOR THE TREATMENT OF CANCER” (BOEHRINGER INGELHEIM INTERNATIONAL GMBH, priority 2021, published 2024).
Where two headings read alike, the source gives them in different places.

Assays:
NCI-H2122 cells = assay: NCI-H2122 CTG proliferation assay (120 h) (NSCLC, G12C); assay type: cell-based; settings: Homo sapiens
How it was run: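 NCI-H2122 cells (KRAS G12C NSCLC), 200 per well in RPMI with 10% FCS, were dosed with compound on day 1 and incubated 120 h at 37 °C. Viability was read by CellTiter-Glo luminescence as percent of DMSO control, and IC50 was fitted with a four-parameter model.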

GP2D cells = assay: GP2D proliferation assay (120 h) (colorectal cancer, G12D); assay type: cell-based
Method: GP2D Proliferation Assay (120 h) (Colorectal Cancer, G12D)
GP2D cells (ATCC No. CRL-5807) are dispensed into white 384-well plates, flat and white bottom (Perkin Elmer, 6007680) at a density of 500 cells per well in 40 μl DMEM (Sigma, D6429)+1×GlutaMAX (Gibco, 35050038)+10% FCS (fetal calf serum). […] Compounds (10 mM stock in DMSO) are added at logarithmic dose series using the HP Digital Dispenser D300 (Tecan), including DMSO controls and normalizing for added DMSO. For the TO time point measurement, untreated cells are analyzed at the time of compound addition. Plates are incubated for 120 h, and cell viability is measured using CellTiter-Glo luminescent cell viability reagent (Promega product code G7570). Viability (stated as percent of control) is defined as relative luminescence units RLU of each well divided by the RLU of cells in DMSO controls. IC50 values are determined from viability measurements by non-linear regression using a four parameter model.

CYP3A4 = CYP3A4 (Homo sapiens (Human), UniProt P08684); assay: Mechanism based inhibition of CYP3A4 assay (MBI 3A4); assay type: in vitro ADME; settings: hydroxy-midazolam formation after 30 min vs 0 min preincubation, 25 uM, human liver microsomes
CYP3A4, sequence (P08684 whole entry): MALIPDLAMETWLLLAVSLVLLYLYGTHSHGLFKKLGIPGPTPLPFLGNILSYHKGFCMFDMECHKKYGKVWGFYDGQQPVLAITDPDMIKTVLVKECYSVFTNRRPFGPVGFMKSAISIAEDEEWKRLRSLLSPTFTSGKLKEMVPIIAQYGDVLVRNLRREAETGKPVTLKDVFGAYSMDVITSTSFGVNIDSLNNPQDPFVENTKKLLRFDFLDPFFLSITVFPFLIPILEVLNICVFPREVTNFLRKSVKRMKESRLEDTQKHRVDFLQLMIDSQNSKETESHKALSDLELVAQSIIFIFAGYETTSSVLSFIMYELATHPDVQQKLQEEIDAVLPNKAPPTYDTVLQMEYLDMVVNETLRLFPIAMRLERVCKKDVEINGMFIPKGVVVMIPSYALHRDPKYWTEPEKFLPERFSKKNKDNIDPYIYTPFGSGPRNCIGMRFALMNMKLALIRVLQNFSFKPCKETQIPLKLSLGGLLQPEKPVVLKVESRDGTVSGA
How it was run: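 Human CYP3A4 activity after 30 min vs 0 min preincubation with test compound; incubate then diluted 1:10 and midazolam added for a 15 min main incubation. Quenched with acetonitrile; hydroxy-midazolam quantified by LC/MS-MS and expressed as % of the 0 min preincubation formation.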

MKN1 cells = assay: MKN1 CTG proliferation assay (120 h) (gastric cancer, wt amplified); assay type: cell-based
Method: MKN1 CTG Proliferation Assay (120 h) (Gastric Cancer, Wt Amplified)
MKN1 cells (JCRB0252) are dispensed into white 384-well plates, flat and white bottom (Corning Costar, PNr.: 3570) at a density of 400 cells per well in 50 μL RPMI 1640 (PAN-Biotech, PNr.: P04-18047)+10% FCS (HyClone, PNr.: SH30084.03) (assay 1) or into white 384-well plates, flat and white bottom (Perkin Elmer, 6007680) at a density of 500 cells per well in 40 μl RPMI (Gibco, PNr.: 21875034)+10% FCS (HyClone, PNr.: SH30084.03) (assay 2) or into black 384-well plates, flat and clear bottom (Greiner, PNr. 781091) at a density of 200 cells per well in 60 μl RPMI-1640 (Gibco #A10491)+10% FCS (HyClone, PNr.: SH30084.03)+PenStrep (Gibco, PNr.15140-122) (assay 3). […] Compounds (10 mM stock in DMSO) are added at logarithmic dose series using the HP Digital Dispenser D300 (Tecan) (assay 1+2) or the ECHO acoustic liquid handler system (Beckman Coulter) (assay 3), including DMSO controls and normalizing for added DMSO. Plates are incubated for 120 h, and cell viability is measured using CellTiter-Glo luminescent cell viability reagent (Promega product code G7570). Viability (stated as percent of control) is defined as relative luminescence units RLU of each well divided by the RLU of cells in DMSO controls. IC50 values are determined from viability measurements by non-linear regression using a four-parameter model.

[1] = Homo sapiens, MKN-1, assay 3, CTG 120 h, read-out: MKN1 (assay 3) IC50
[2] = Homo sapiens, MKN-1, assay 1, CTG 120 h, read-out: MKN1 (assay 1) IC50

| Compound | IC50 (GP2D cells) [nM] | IC50 (MKN1 cells; [1]) [nM] | also measured |
| --- | --- | --- | --- |
| C[C@H](Oc1cc(N2CCNC[C@]23CCOC3)nc(-c2onc3c2CCC[C@@]32CCCc3sc(N)c(C#N)c32)n1)[C@@H]1CCCN1C [I-12] | 1 |  | IC50 (NCI-H2122 cells): 3280 nM; MBI 3A4 (CYP3A4): 56% |
| C[C@H](Oc1cc(N2CCNC[C@@]23CCOC3)nc(-c2onc3c2CCC[C@@]32CCCc3sc(N)c(C#N)c32)n1)[C@@H]1CCCN1C [I-13] |  | 679 | IC50 (NCI-H2122 cells): 6470 nM; MBI 3A4 (CYP3A4): 48% |
| C[C@H](Oc1cc(-c2cn(C)nn2)nc(-c2onc3c2CCC[C@@]32CCCc3sc(N)c(C#N)c32)n1)[C@@H]1CCCN1C [I-16] | 673 |  |  |
| C[C@H](Oc1cc(-n2cc3c(n2)CCN(C)C3)nc(-c2noc3c2CCC[C@@]32CCCc3sc(N)c(C#N)c32)n1)[C@@H]1CCCN1C [II-141] | 4 |  | IC50 (NCI-H2122 cells): 2830 nM; MBI 3A4 (CYP3A4): 88% |
| C[C@H](Oc1cc(N2CCOC2=O)nc(-c2noc3c2CCC[C@@]32CCCc3sc(N)c(C#N)c32)n1)[C@@H]1CCCN1C [II-143] | 59 |  | IC50 (NCI-H2122 cells): 584 nM |
| C[C@H](Oc1cc(-c2ccn(C)n2)nc(-c2noc3c2CCC[C@@]32CCCc3sc(N)c(C#N)c32)n1)[C@@H]1C[C@H](F)CN1C [II-144] | > 1000 |  | IC50 (NCI-H2122 cells): 3690 nM; MBI 3A4 (CYP3A4): 60% |
| C[C@H](Oc1cc(N2CCN(C)C3(COC3)C2)nc(-c2noc3c2CCC[C@@]32CCCc3sc(N)c(C#N)c32)n1)[C@@H]1C[C@@H](F)CN1C [II-148] | 11 |  | IC50 (NCI-H2122 cells): 2220 nM; MBI 3A4 (CYP3A4): 55% |
| C[C@H](Oc1cc(N2CCN(C)C3(CCOC3)C2)nc(-c2noc3c2CCC[C@@]32CCCc3sc(N)c(C#N)c32)n1)[C@@H]1C[C@@H](F)CN1C (some centres unmarked) [II-151] | 32 |  | IC50 (NCI-H2122 cells): 3580 nM |
| CO[C@@H]1C[C@@H]([C@H](C)Oc2cc(N3CCN(C)C4(CC4)C3)nc(-c3noc4c3CCC[C@@]43CCCc4sc(N)c(C#N)c43)n2)N(C)C1 [II-152] | 13 |  |  |
| CO[C@@H]1C[C@@H]([C@H](C)Oc2cc(N3CCN(C)C4(COC4)C3)nc(-c3noc4c3CCC[C@@]43CCCc4sc(N)c(C#N)c43)n2)N(C)C1 [II-153] | 14 |  | MBI 3A4 (CYP3A4): 49% |
| C[C@H](Oc1cc(-n2cc3c(n2)CNC3)nc(-c2noc3c2CCC[C@@]32CCCc3sc(N)c(C#N)c32)n1)[C@@H]1C[C@@H](F)CN1C [II-154] | 39 |  |  |
| C[C@H](Oc1nc(-c2noc3c2CCC[C@@]32CCCc3sc(N)c(C#N)c32)nc(N2CCNC3(CC3)C2)c1Cl)[C@@H]1C[C@@H](F)CN1C [II-156] | 1 |  |  |
| C[C@H](Oc1nc(-c2noc3c2CCC[C@@]32CCCc3sc(N)c(C#N)c32)nc(N2C[C@H](C)NC3(CC3)C2)c1F)[C@@H]1C[C@@H](F)CN1C [II-157] | 2 |  |  |
| C[C@@H]1CN(c2nc(-c3noc4c3CCC[C@@]43CCCc4sc(N)c(C#N)c43)nc(O[C@@H](C)[C@@H]3C[C@@H](F)CN3C)c2F)CC2(CC2)N1 [II-158] | 9 |  |  |
| CC(C)N1CCCN(c2cc(-n3ccnc3)nc(-c3noc4c3CCC[C@@]43CCCc4sc(N)c(C#N)c43)n2)[C@@H](C)C1 [II-169] | 1870 |  | IC50 (NCI-H2122 cells): 2280 nM; MBI 3A4 (CYP3A4): 66% |
| C[C@H](Oc1nc(-c2noc3c2CCC[C@@]32CCCc3sc(N)c(C#N)c32)nc(N2CCN(C)C3(CC3)C2)c1Cl)[C@@H]1C[C@@H](F)CN1C [II-176] | 50 |  |  |
| CC(C)NC(=O)Cc1ccn(-c2cc(O[C@@H](C)[C@@H]3CCCN3C)nc(-c3noc4c3CCC[C@@]43CCCc4sc(N)c(C#N)c43)n2)n1 [II-182] |  | 12 | IC50 (MKN1 cells; [2]): 24 nM |
| CO[C@H]1CCN(C)[C@@H]1[C@H](C)Oc1cc(-n2ccc(CC(=O)NC(C)C)n2)nc(-c2noc3c2CCC[C@@]32CCCc3sc(N)c(C#N)c32)n1 [II-183] |  | 41 |  |
| CO[C@H]1CCN(C)[C@@H]1[C@H](C)Oc1cc(N2CCNC3(CC3)C2)nc(-c2noc3c2CCC[C@@]32CCCc3sc(N)c(C#N)c32)n1 [II-184] |  | 68 | IC50 (MKN1 cells; Homo sapiens, MKN-1, assay 2, CTG 120 h, read-out: MKN1 (assay 2) IC50): 227 nM |
| C[C@H](Oc1cc(-n2ccc(C3(O)COC3)n2)nc(-c2noc3c2CCC[C@@]32CCCc3sc(N)c(C#N)c32)n1)[C@@H]1CCCN1C [II-189] |  | 18 | IC50 (MKN1 cells; [2]): 19 nM |
| C[C@H](Oc1cc(-n2ccc(C(=O)N[C@H]3CCOC3)n2)nc(-c2noc3c2CCC[C@@]32CCCc3sc(N)c(C#N)c32)n1)[C@@H]1CCCN1C [II-193] |  |  | IC50 (MKN1 cells; assay 3, CTG 120 h, read-out: MKN1 (assay 3) IC50): 17 nM; MBI 3A4 (CYP3A4): 61% |
| C[C@H](Oc1cc(-n2ccc(C(=O)N(C)C3COC3)n2)nc(-c2noc3c2CCC[C@@]32CCCc3sc(N)c(C#N)c32)n1)[C@@H]1CCCN1C [II-194] |  | 25 | IC50 (MKN1 cells; [2]): 20 nM |

More lines, main results first:

| IC50 (GP2D cells) [nM] | IC50 (MKN1 cells; [1]) [nM] | Compound | also measured |
| --- | --- | --- | --- |
|  | 22 | COCCNC(=O)c1ccn(-c2cc(O[C@@H](C)[C@@H]3CCCN3C)nc(-c3noc4c3CCC[C@@]43CCCc4sc(N)c(C#N)c43)n2)n1 [II-195] | MBI 3A4 (CYP3A4): 56% |
|  | 17 | CO[C@H]1CCN(C)[C@@H]1[C@H](C)Oc1cc(-n2ccc(C(=O)N[C@@H](C)c3ccccn3)n2)nc(-c2noc3c2CCC[C@@]32CCCc3sc(N)c(C#N)c32)n1 [II-196] |  |
|  | 16 | CO[C@H]1CCN(C)[C@@H]1[C@H](C)Oc1cc(-n2ccc(C(=O)N[C@@H]3CCOC3)n2)nc(-c2noc3c2CCC[C@@]32CCCc3sc(N)c(C#N)c32)n1 [II-197] |  |
|  | 15 | CO[C@H]1CCN(C)[C@@H]1[C@H](C)Oc1cc(-n2ccc(C(=O)N[C@H]3CCOC3)n2)nc(-c2noc3c2CCC[C@@]32CCCc3sc(N)c(C#N)c32)n1 [II-198] |  |
|  | 51 | CO[C@H]1CCN(C)[C@@H]1[C@H](C)Oc1cc(-n2ccc(C(=O)N(C)C3COC3)n2)nc(-c2noc3c2CCC[C@@]32CCCc3sc(N)c(C#N)c32)n1 [II-199] |  |
|  | 11 | COCCNC(=O)c1ccn(-c2cc(O[C@@H](C)[C@@H]3[C@@H](OC)CCN3C)nc(-c3noc4c3CCC[C@@]43CCCc4sc(N)c(C#N)c43)n2)n1 [II-200] |  |
|  | 14 | CO[C@H]1CCN(C)[C@@H]1[C@H](C)Oc1cc(-n2ccc(C(N)=O)n2)nc(-c2noc3c2CCC[C@@]32CCCc3sc(N)c(C#N)c32)n1 [II-201] | IC50 (MKN1 cells; [2]): 20 nM |
|  | 27 | C[C@H](Oc1cc(-n2cc3ccn([C@H]4CCOC4)c(=O)c3n2)nc(-c2noc3c2CCC[C@@]32CCCc3sc(N)c(C#N)c32)n1)[C@@H]1CCCN1C [II-202] |  |
|  | 33 | C[C@H](Oc1cc(-n2cc3ccn([C@@H](C)c4ccccn4)c(=O)c3n2)nc(-c2noc3c2CCC[C@@]32CCCc3sc(N)c(C#N)c32)n1)[C@@H]1CCCN1C [II-205] |  |
|  | 34 | C[C@H](Oc1cc(-n2cc3ccn(C4CCOCC4)c(=O)c3n2)nc(-c2noc3c2CCC[C@@]32CCCc3sc(N)c(C#N)c32)n1)[C@@H]1CCCN1C [II-206] |  |
|  | 785 | [2H]C([2H])([2H])N1C[C@H](F)C[C@H]1[C@H](C)Oc1cc(N2CCN(C([2H])([2H])[2H])C3(CC3)C2)nc(-c2noc3c2CCC[C@@]32CCCc3sc(N)c(C#N)c32)n1 [II-207] |  |
|  | 37 | C[C@H](Oc1cc(-n2ccc(-c3cn(C4CCOCC4)nn3)n2)nc(-c2noc3c2CCC[C@@]32CCCc3sc(N)c(C#N)c32)n1)[C@@H]1CCCN1C [II-210] |  |
|  | 22 | C[C@H](Oc1cc(-n2ccc(-c3cn([C@@H]4CCOC4)nn3)n2)nc(-c2noc3c2CCC[C@@]32CCCc3sc(N)c(C#N)c32)n1)[C@@H]1CCCN1C [II-211] |  |
|  | 17 | C[C@H](Oc1cc(-n2ccc(-c3cn([C@H]4CCOC4)nn3)n2)nc(-c2noc3c2CCC[C@@]32CCCc3sc(N)c(C#N)c32)n1)[C@@H]1CCCN1C [II-212] |  |
|  | 12 | C[C@H](Oc1cc(-n2ccc(-c3cn(CC4(C)COC4)nn3)n2)nc(-c2noc3c2CCC[C@@]32CCCc3sc(N)c(C#N)c32)n1)[C@@H]1CCCN1C [II-213] |  |
